The record followed here is BindingDB's records for PubMed 3033464 (Burroughs Wellcome, 1987).

Values joined by “and” are separate entries in the source; they are usually repeats but may differ in a detail not shown here. Equal entries are not always repeated. Where a SMILES comes first, the peptide text is derived from it.

Chain of Mu-type opioid receptor (P33535 whole entry): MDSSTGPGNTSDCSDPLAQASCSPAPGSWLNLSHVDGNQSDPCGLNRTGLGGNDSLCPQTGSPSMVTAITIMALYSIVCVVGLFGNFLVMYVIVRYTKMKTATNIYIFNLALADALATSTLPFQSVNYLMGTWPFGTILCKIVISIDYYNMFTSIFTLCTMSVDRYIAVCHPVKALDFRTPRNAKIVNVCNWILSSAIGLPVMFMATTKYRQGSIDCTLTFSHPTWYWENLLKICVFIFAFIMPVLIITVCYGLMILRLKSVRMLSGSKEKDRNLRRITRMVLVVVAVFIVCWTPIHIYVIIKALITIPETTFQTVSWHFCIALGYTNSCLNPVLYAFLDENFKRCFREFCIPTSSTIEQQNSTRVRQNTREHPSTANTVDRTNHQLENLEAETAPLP

This test concerns the target Mu-type opioid receptor (Rattus norvegicus, UniProt P33535).
The term Ki denotes the dissociation constant of the complex between target and ligand, obtained from inhibition or displacement. Read a high Ki as a looser hold on the target. Take `CC(C)[C@H](NC(=O)[C@H](Cc1ccccc1)NC(=O)[C@@H]1CCCN1C(=O)[C@@H](N)Cc1ccc(O)cc1)C(N)=O` (H-YPFV-NH2): the Ki is 37 nM and 16.1 nM.
Compound `NC(=O)[C@@H]1CCCN1C(=O)[C@H](Cc1ccccc1)NC(=O)[C@@H]1CCCN1C(=O)[C@@H](N)Cc1ccc(O)cc1` [CAS_79805-24-6] (H-YPFP-NH2) registered an inhibition constant Ki of 1160 nM.
For the compound `NC(=O)[C@@H]1CCCN1C(=O)[C@@H](Cc1ccccc1)NC(=O)[C@@H]1CCCN1C(=O)[C@@H](N)Cc1ccc(O)cc1` [Morphiceptin] (HELM PEPTIDE1{Y.P.[dF].P.[am]}$$$$V2.0), the Ki is 63 nM and 34.9 nM.
